The target in test [1] is T1, Human cytosolic leucyl-tRNA synthetase (hcLRS) (Homo sapiens, UniProt Q9P2J5).
T1 construct: gene LARS1
Nature of the test: X-ray co-crystal structure at […] Å (as AN6426-AMP); aminoacylation inhibition IC50. In kind it is biochemical.
Target sequence in this assay (Q9P2J5 whole entry): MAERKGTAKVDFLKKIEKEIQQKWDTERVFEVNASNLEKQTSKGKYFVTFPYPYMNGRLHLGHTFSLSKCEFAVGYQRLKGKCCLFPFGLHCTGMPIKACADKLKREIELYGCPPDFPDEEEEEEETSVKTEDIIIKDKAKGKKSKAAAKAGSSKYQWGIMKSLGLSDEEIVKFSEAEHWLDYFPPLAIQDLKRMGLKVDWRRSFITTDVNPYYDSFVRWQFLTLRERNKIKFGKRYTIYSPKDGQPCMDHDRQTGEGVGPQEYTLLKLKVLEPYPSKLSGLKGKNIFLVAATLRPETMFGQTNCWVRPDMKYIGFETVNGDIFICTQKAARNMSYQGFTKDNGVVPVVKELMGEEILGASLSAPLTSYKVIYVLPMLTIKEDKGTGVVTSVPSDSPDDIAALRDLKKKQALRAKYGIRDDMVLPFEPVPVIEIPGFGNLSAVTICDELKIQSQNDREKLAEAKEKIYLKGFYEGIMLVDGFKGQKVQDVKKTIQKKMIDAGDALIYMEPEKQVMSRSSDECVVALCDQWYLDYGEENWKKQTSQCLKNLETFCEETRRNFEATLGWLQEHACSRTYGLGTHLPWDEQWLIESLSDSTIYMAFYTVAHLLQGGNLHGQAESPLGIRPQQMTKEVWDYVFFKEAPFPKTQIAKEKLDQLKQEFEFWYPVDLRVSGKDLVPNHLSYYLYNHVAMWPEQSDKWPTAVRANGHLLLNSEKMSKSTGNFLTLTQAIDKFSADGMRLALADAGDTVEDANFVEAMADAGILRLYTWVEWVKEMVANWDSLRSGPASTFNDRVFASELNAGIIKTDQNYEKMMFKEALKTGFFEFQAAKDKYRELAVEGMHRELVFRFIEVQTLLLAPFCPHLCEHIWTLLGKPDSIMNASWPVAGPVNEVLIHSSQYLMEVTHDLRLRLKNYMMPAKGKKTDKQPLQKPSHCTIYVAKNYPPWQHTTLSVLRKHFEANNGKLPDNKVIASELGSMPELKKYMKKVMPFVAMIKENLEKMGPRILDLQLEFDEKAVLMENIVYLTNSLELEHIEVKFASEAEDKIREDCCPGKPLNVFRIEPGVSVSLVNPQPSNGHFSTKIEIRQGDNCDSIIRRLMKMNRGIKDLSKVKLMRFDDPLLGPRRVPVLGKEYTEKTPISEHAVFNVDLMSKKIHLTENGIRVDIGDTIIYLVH

Test [2] concerns the target T1, Human cytosolic leucyl-tRNA synthetase (hcLRS). Nature of the test: X-ray co-crystal structure, […] Å. The format is binding.
Target sequence in this assay (Q9P2J5 1-1070): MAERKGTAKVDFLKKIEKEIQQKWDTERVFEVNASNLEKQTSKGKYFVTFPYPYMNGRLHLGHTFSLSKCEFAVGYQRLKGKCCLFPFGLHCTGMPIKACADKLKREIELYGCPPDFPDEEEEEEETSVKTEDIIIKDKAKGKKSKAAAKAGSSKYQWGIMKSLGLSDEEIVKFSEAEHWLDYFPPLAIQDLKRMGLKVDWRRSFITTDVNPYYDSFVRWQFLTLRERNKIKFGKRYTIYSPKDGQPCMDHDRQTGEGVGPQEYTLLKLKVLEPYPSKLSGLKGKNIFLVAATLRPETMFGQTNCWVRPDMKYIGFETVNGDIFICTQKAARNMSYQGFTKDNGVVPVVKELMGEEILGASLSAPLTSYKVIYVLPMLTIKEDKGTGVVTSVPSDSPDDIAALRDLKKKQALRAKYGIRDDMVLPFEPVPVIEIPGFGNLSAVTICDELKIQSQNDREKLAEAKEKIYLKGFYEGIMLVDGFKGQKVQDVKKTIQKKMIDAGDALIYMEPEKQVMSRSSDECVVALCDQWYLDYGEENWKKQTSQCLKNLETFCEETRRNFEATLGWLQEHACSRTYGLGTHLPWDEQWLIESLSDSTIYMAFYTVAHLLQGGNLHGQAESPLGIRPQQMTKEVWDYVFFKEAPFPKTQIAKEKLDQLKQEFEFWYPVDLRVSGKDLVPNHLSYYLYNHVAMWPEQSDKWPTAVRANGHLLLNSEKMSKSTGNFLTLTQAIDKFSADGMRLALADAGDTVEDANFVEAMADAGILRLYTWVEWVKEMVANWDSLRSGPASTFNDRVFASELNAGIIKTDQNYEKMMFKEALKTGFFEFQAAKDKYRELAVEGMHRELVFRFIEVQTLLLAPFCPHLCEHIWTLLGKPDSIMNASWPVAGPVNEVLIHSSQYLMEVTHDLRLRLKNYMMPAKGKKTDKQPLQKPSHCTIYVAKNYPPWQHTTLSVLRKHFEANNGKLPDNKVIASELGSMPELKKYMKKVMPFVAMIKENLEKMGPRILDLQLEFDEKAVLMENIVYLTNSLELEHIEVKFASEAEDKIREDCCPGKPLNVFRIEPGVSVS
Test [3] has the same target. Nature of the test: aminoacylation assay with [3H]-Leu and tRNA^Leu(CAG), purified hcLRS. In kind it is biochemical.
Target sequence in this assay (Q9P2J5 whole entry): as the sequence (Q9P2J5 whole entry) above

The term IC50 denotes the concentration that gives 50% inhibition. On to `CCOc1ccc(Cl)c2c1B(O)OC2CN` (stereo not drawn) [AN6426], for which the IC50 in test [1] was determined as 7.7 µM. In other words, the single-digit micromolar range.

On to `CC(C)C[C@H](N)C(=O)NS(=O)(=O)OC[C@H]1O[C@@H](n2cnc3c(N)ncnc32)[C@H](O)[C@@H]1O` [LeuAMS], for which the “X-ray co-crystal structure, 2.5 Å” value in test [2] was “LeuAMS, a stable analog of LeuAMP, was bound in the aminoacylation active site in our structure”.

Compound `OB1OCc2cc(F)ccc21` [tavaborole] yielded an IC50 in test [3] of 14.8 µM.

Values taken from paper PMC7229842, “Molecular basis of the multifaceted functions of human leucyl-tRNA synthetase in protein synthesis and beyond” (Nucleic Acids Research, 2020).
